The record followed here is patent publication US12679843B2, “Pyrrolopyrimidine amines as complement inhibitors” (BioCryst Pharmaceuticals, Inc., priority 2020, dated 2026).

By IC50 is commonly meant the concentration that gives 50% inhibition.

Some results are limits rather than exact numbers.

For the assay, the target named is Factor D (Homo sapiens, UniProt P00746). Put plainly: Factor D esterolytic assay (Z-Lys-SBzl thioester substrate, DTNB, 405 nm). The class given is biochemical. The settings on record: substrate Z-Lys-SBzl 1.29 mM, 100 mM HEPES, 500 mM NaCl, pH 7.5, 10% DMSO, tested a minimum of three times. The procedure: The IC50 value of a compound (i.e., the concentration of the compound that inhibits 50% of the enzymatic activity) was calculated according to the procedure reported in U.S. Pat. No. 6,653,340 B1, e.g., column 74 (incorporated by reference).
Specifically, the compounds were dissolved in a stock solution of DMSO at 10.0 or 100 mM. A portion of this stock solution was added to assay buffer in a final volume of 50 μL. Controls included buffer alone and enzyme solutions to which DMSO was added. Substrate was added to the reaction wells immediately or after incubation at room temperature. The reaction rates were measured spectrophotometrically by the generation of product at 405 nm for 600 sec. Background absorbance at 690 nm was measured and subtracted from the absorbance at 405 nm for each well.
The reaction rate for enzyme alone was compared to the rate of enzyme in the presence of inhibitor and the percent inhibition was calculated as shown below: Percent Inhibition=[Rate without inhibitor−Rate with inhibitor)/(Rate without inhibitor)]−100 Factor D Esterolytic Assay:
An established esterolytic assay for the measurement of Factor D activity and inhibition of Factor D activity was used (Kam, C. M.; McRae, B. J.; Harper, J. W.; Niemann, M. A.; Volanakis, J. E.; Powers, J. C. Human complement proteins D. C2, and B Active site mapping with peptide thioester substrates. J Biol. Chem. 1987, 262, 3444-3451). For this assay Z-Lys-SBzl, 1.29 mM (Kim, S.; Narayana, S. V. L; Volanakis, J. E. Mutational analysis of the substrate binding site of human complement Factor D. Biochemistry, 1994, 33, 14393-14399) was used as the substrate for Factor D ([…]). Hydrolysis of this compound by Factor D liberated a free sulfhydryl group which is then reacted with 5,5′-dithiobis(2-nitrobenzoic acid) producing an intense yellow color (Habeeb, A. F. S. A. Reaction of protein sulfhydryl groups with Ellman's Reagent. Methods in Enzymol. 1976, 25, 457-464). The assays were performed in 96 well microtiter plates and rates of hydrolysis were monitored at 405 nm on a Biotek Synergy H1 plate reader. Hydrolysis rates were reported as change in mOD/min. The assay was conducted in 100 mM HEPES, 500 mM NaCl, pH 7.5 containing 10% DMSO in a final volume of 50 μL per well.
An IC50, a compound concentration which inhibits 50% of the enzymatic activity, was calculated. Compounds in the examples were tested a minimum of three times.

Sequence of Factor D (P00746 26-253): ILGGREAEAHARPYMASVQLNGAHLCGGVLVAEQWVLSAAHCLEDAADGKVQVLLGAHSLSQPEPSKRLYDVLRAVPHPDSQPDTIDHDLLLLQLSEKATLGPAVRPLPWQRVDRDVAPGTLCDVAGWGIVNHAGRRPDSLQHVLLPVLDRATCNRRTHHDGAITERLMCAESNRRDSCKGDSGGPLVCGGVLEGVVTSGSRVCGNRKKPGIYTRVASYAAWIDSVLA

Consider `COC(=O)c1ccc2c(c1)c1c(N)ncnc1n2CC(=O)N1[C@H](C(=O)Nc2cccc(Br)n2)C[C@@]2(C)C[C@@H]12` [Compound 40a, methyl 4-amino-9-(2-((1R,3S,5R)-3-((6-bromopyridin-2-yl)carbamoyl)-5-methyl-2-azabicyclo[3.1.0]hexan-2-yl)-2-oxoethyl)-9H-pyrimido[4,5-b]indole-6-carboxylate], for which the IC50 was under 100 nM.

In the case of `COC(=O)c1ccc2c3c(N)ncnc3n(CC(=O)N3[C@@H]4C[C@@H]4C[C@H]3C(=O)Nc3cccc(Br)n3)c2c1` [Compound 41f, methyl 4-amino-9-(2-((1R,3S,5R)-3-((6-bromopyridin-2-yl)carbamoyl)-2-azabicyclo[3.1.0]hexan-2-yl)-2-oxoethyl)-9H-pyrimido[4,5-b]indole-7-carboxylate], the IC50 was under 100 nM.

Regarding `COC(=O)c1ccc2c3c(N)ncnc3n(CC(=O)N3[C@H](C(=O)Nc4cccc(Br)n4)C[C@@]4(C)C[C@@H]34)c2c1` [Compound 42a, methyl 4-amino-9-(2-((1R,3S,5R)-3-((6-bromopyridin-2-yl)carbamoyl)-5-methyl-2-azabicyclo[3.1.0]hexan-2-yl)-2-oxoethyl)-9H-pyrimido[4,5-b]indole-7-carboxylate], the IC50 was under 100 nM.

As for `Nc1ncnc2c1c1ccc(C(=O)O)cc1n2CC(=O)N1[C@@H]2C[C@@H]2C[C@H]1C(=O)Nc1cccc(Br)n1` [Compound 43a, 4-amino-9-(2-((1R,3S,5R)-3-((6-bromopyridin-2-yl)carbamoyl)-2-azabicyclo[3.1.0]hexan-2-yl)-2-oxoethyl)-9H-pyrimido[4,5-b]indole-7-carboxylic acid], the IC50 is under 100 nM.

Take `Nc1ncnc2c1c1cc(C(=O)O)ccc1n2CC(=O)N1[C@@H]2C[C@@H]2C[C@H]1C(=O)Nc1cccc(Br)n1` [Compound 44a, 4-amino-9-(2-((1R,3S,5R)-3-((6-bromopyridin-2-yl)carbamoyl)-2-azabicyclo[3.1.0]hexan-2-yl)-2-oxoethyl)-9H-pyrimido[4,5-b]indole-6-carboxylic acid]: the IC50 is under 100 nM.

For `CCOC(=O)CCc1ccc2c(c1)c1c(N)ncnc1n2CC(=O)N1[C@@H]2C[C@@H]2C[C@H]1C(=O)Nc1cccc(Br)n1` [Compound 45d, ethyl 3-(4-amino-9-(2-((1R,3S,5R)-3-((6-bromopyridin-2-yl)carbamoyl)-2-azabicyclo[3.1.0]hexan-2-yl)-2-oxoethyl)-9H-pyrimido[4,5-b]indol-6-yl)propanoate], the IC50 is under 100 nM.

For the compound `CCOC(=O)c1cccc2c1c1c(N)ncnc1n2CC(=O)N1[C@@H]2C[C@@H]2C[C@H]1C(=O)Nc1cccc(Br)n1` [Compound 46g, ethyl 4-amino-9-(2-((1R,3S,5R)-3-((6-bromopyridin-2-yl)carbamoyl)-2-azabicyclo[3.1.0]hexan-2-yl)-2-oxoethyl)-9H-pyrimido[4,5-b]indole-5-carboxylate], the IC50 was 100 to 1000 nM.

In the case of `COC(=O)c1cccc2c3c(N)ncnc3n(CC(=O)N3[C@@H]4C[C@@H]4C[C@H]3C(=O)Nc3cccc(Br)n3)c12` [Compound 47g, methyl 4-amino-9-(2-((1R,3S,5R)-3-((6-bromopyridin-2-yl)carbamoyl)-2-azabicyclo[3.1.0]hexan-2-yl)-2-oxoethyl)-9H-pyrimido[4,5-b]indole-8-carboxylate], the IC50 was under 100 nM.

Consider `CC(C)(C)OC(=O)Nc1ccc2c(c1)c1c(N)ncnc1n2CC(=O)N1[C@@H]2C[C@@H]2C[C@H]1C(=O)Nc1cccc(Br)n1` [Compound 48d, tert-butyl (4-amino-9-(2-((1R,3S,5R)-3-((6-bromopyridin-2-yl)carbamoyl)-2-azabicyclo[3.1.0]hexan-2-yl)-2-oxoethyl)-9H-pyrimido[4,5-b]indol-6-yl)carbamate], for which the IC50 was under 100 nM.

On to `N#Cc1ccc2c(c1)c1c(N)ncnc1n2CC(=O)N1[C@@H]2C[C@@H]2C[C@H]1C(=O)Nc1cccc(Br)n1` [Compound 49c, (1R,3S,5R)-2-(2-(4-amino-6-cyano-9H-pyrimido[4,5-b]indol-9-yl)acetyl)-N-(6-bromopyridin-2-yl)-2-azabicyclo[3.1.0]hexane-3-carboxamide], for which the IC50 was under 100 nM.

As to `Nc1ncnc2c1c1c(F)cccc1n2CC(=O)N1[C@@H]2C[C@@H]2C[C@H]1C(=O)Nc1cccc(Br)n1` [Compound 50f, (1R,3S,5R)-2-(2-(4-amino-5-fluoro-9H-pyrimido[4,5-b]indol-9-yl)acetyl)-N-(6-bromopyridin-2-yl)-2-azabicyclo[3.1.0]hexane-3-carboxamide], the IC50 fell in the range of 100 to 1000 nM.

Take `Nc1ncnc2c1c1cccc(F)c1n2CC(=O)N1[C@@H]2C[C@@H]2C[C@H]1C(=O)Nc1cccc(Br)n1` [Compound 51g, (1R,3S,5R)-2-(2-(4-amino-8-fluoro-9H-pyrimido[4,5-b]indol-9-yl)acetyl)-N-(6-bromopyridin-2-yl)-2-azabicyclo[3.1.0]hexane-3-carboxamide]: the IC50 was under 100 nM.

For `Nc1ncnc2c1c1ccc(Br)cc1n2CC(=O)N1[C@@H]2C[C@@H]2C[C@H]1C(=O)Nc1cccc(Br)n1` [Compound 52f, (1R,3S,5R)-2-(2-(4-amino-7-bromo-9H-pyrimido[4,5-b]indol-9-yl)acetyl)-N-(6-bromopyridin-2-yl)-2-azabicyclo[3.1.0]hexane-3-carboxamide], the IC50 was under 100 nM.

For `Nc1ncnc2c1c1cc(C(F)(F)F)ccc1n2CC(=O)N1CC2(CC2)C[C@H]1C(=O)Nc1cccc(Br)n1` [Compound 53d, (S)-5-(2-(4-amino-6-(trifluoromethyl)-9H-pyrimido[4,5-b]indol-9-yl)acetyl)-N-(6-bromopyridin-2-yl)-5-azaspiro[2.4]heptane-6-carboxamide], the IC50 fell in the range of 100 to 1000 nM.

For `COc1cccc2c3c(N)ncnc3n(CC(=O)N3[C@@H]4C[C@@H]4C[C@H]3C(=O)Nc3cccc(Br)n3)c12` [Compound 54g, (1R,3S,5R)-2-(2-(4-amino-8-methoxy-9H-pyrimido[4,5-b]indol-9-yl)acetyl)-N-(6-bromopyridin-2-yl)-2-azabicyclo[3.1.0]hexane-3-carboxamide], the IC50 is under 100 nM.

`Cc1cccc2c3c(N)ncnc3n(CC(=O)N3[C@H](C(=O)Nc4cccc(Br)n4)C[C@@]4(C)C[C@@H]34)c12` [Compound 55a, (1R,3S,5R)-2-(2-(4-amino-8-methyl-9H-pyrimido[4,5-b]indol-9-yl)acetyl)-N-(6-bromopyridin-2-yl)-5-methyl-2-azabicyclo[3.1.0]hexane-3-carboxamide]: the IC50 is under 100 nM.

`Cc1cccc2c1c1c(N)ncnc1n2CC(=O)N1[C@@H]2C[C@@H]2C[C@H]1C(=O)Nc1cccc(Br)n1` [Compound 56g, (1R,3S,5R)-2-(2-(4-amino-5-methyl-9H-pyrimido[4,5-b]indol-9-yl)acetyl)-N-(6-bromopyridin-2-yl)-2-azabicyclo[3.1.0]hexane-3-carboxamide]: the IC50 was in the range of 100 to 1000 nM.

In the case of `COc1cccc2c1c1c(N)ncnc1n2CC(=O)N1[C@@H]2C[C@@H]2C[C@H]1C(=O)Nc1cccc(Br)n1` [Compound 57g, (1R,3S,5R)-2-(2-(4-amino-5-methoxy-9H-pyrimido[4,5-b]indol-9-yl)acetyl)-N-(6-bromopyridin-2-yl)-2-azabicyclo[3.1.0]hexane-3-carboxamide], the IC50 is under 100 nM.

Turning to `CC(=O)c1ccc2c(c1)c1c(N)ncnc1n2CC(=O)N1[C@@H]2C[C@@H]2C[C@H]1C(=O)Nc1cccc(Br)n1` [Compound 58c, (1R,3S,5R)-2-(2-(6-acetyl-4-amino-9H-pyrimido[4,5-b]indol-9-yl)acetyl)-N-(6-bromopyridin-2-yl)-2-azabicyclo[3.1.0]hexane-3-carboxamide], the 50% inhibitory concentration (IC50) was under 100 nM.

`C=Cc1ccc2c(c1)c1c(N)ncnc1n2CC(=O)N1[C@@H]2C[C@@H]2C[C@H]1C(=O)Nc1cccc(Br)n1` [Compound 59c, (1R,3S,5R)-2-(2-(4-amino-6-vinyl-9H-pyrimido[4,5-b]indol-9-yl)acetyl)-N-(6-bromopyridin-2-yl)-2-azabicyclo[3.1.0]hexane-3-carboxamide]: the IC50 is under 100 nM.

On to `NC(=O)c1ccc2c(c1)c1c(N)ncnc1n2CC(=O)N1[C@@H]2C[C@@H]2C[C@H]1C(=O)Nc1cccc(Br)n1` [Compound 60c, 4-amino-9-(2-((1R,3S,5R)-3-((6-bromopyridin-2-yl)carbamoyl)-2-azabicyclo[3.1.0]hexan-2-yl)-2-oxoethyl)-9H-pyrimido[4,5-b]indole-6-carboxamide], for which the IC50 was under 100 nM.
